Columns and labels:
Type in all cases: cell-based, human
[1] = system: control and patient fibroblasts; assay: Toxicity assay (Trypan blue cell counting after 72 h); conditions: Homo sapiens, Fibroblast, control and patient fibroblasts, living cells vs DMSO, read-out: calculated IC50 (toxicity)
Experimental: Skin punches were obtained from patients after informed consent. Primary fibroblast cultures were established using standard procedures in RPMI supplemented with 10% Fetal Bovine Serum (FBS), 45 μg/mL uridine and 275 μg/mL sodium pyruvate (Bannwarth et al., 2014). Primary fibroblast cultures were maintained in Dulbecco's Modified Eagle Medium supplemented with 10% FBS, penicillin (100 U/mL) and streptomycin (0.1 mg/mL) at 37° C. in a humidified incubator with 5% CO2. Cells were plated in six well plates in glucose medium (DMEM, 10% FBS, penicillin (100 U/mL) and streptomycin (0.1 mg/mL)) and incubated at 37° C. in a humidified incubator with 5% CO2. After 24h, one well was treated with DMSO, the other wells were treated with rising concentrations of […] or NFO. 72 h after the treatment, the cells were trypsinized, stained with Trypan blue and counted with a Malassez cell. The ratio of each concentration compared to the DMSO control has been plotted and the IC50 has been calculated using the nonlinear regression on the software GraphpadPrism 8.

patient fibroblasts [2] = assay: Proliferation measurement (Xcelligence); conditions: NFX 0.5-1 μM, 72 h
Experimental: The proliferation was measured using the Xcelligence machine (ACEA Bioscience). 50 μL of glucose medium (DMEM, 10% FBS, penicillin (100 U/mL) and streptomycin (0.1 mg/mL)) was added in the well of an Xcelligence 16 well plate to realise the blank of the machine. After trypsination, the cells were counted and resuspended in glucose medium at a concentration of 100 000 cells/mL and 50 μL of cells were plated per condition in the Xcelligence 16 well plates. The impedence as a proxy for cell division was followed during 72 h thanks to the RTCA software 2.0 and plotted thanks to the software GraphpadPrism 8 (GraphPad Software).

patient fibroblasts [3] = assay: Electron microscopy of mitochondrial morphology in fibroblasts; conditions: 72 h after treatment
Experimental: Cells were seeded on 24 wells/plate, fixed with 1.6% glutaraldehyde in 0.1 M cacodylate buffer (pH 7.4) for 2 hours, rinsed and postfixed in 1% osmium tetroxide and 1% potassium ferrocyanide in 0.1 M cacodylate buffer before to processed for ultrastructure as previously described (Bannwarth et al., Brain, 2014, 137, 2329-2345). The protocol for contrasting sections was slightly modified, using a 5% Lanthanide salt solution (a mixture of Gadolinium acetate and Samarium acetate) for 7 minutes instead of uranium acetate. The cells were examined under a JEOL 1400 transmission electron microscope. The ultrastructure of mitochondria was classified in three categories. Normal: the mitochondria have numerous, parallel and well organized cristae. Intermediary: the mitochondria have less cristae, they show few round or swollen cristae or have a mild disorganisation. Abnormal: the mitochondria have swollen, disorganized or no cristae. More than 100 mitochondria were classified per condition. Nifuroxazide (46494-100MG Sigma) was resuspended in DMSO at 50 mM and stocked at −20° C. For each treatment, the Nifuroxazide was diluted in complete medium (Dulbecco's Modified Eagle Medium supplemented with 10% FBS, penicillin (100 U/mL) and streptomycin (0.1 mg/mL)) at the desired concentration. […] 72 h hours after treatment, the cells were analysed.

## O=C(N/N=C/c1ccc([N+](=O)[O-])o1)c1ccc(O)cc1 [NFX, (E)-4-hydroxy-N′-((5-nitrofuran-2-yl)methylene)benzohydrazide]
[1]
  IC50: ~10 µM
Patient fibroblasts [2]
  effect on the growth rate: did not show any effect
Patient fibroblasts [3]
  mitochondrial morphology and cristae shape (EM): improved

Reference: US20250025439A1, “DERIVATIVES OF NIFUROXAZIDE FOR USE IN THE TREATMENT OF MITOCHONDRIAL DISORDERS AND NEURODEGENERATIVE DISEASES” (priority 2021, published 2025)
